Results from patent US5824698A, “Antibacterial dibenzimidazole derivatives” (priority 1994, dated 1998).
≈ marks a conversion by molar mass, not a printed value. Like-named read-outs stand apart in the source and are kept apart here.

Legend:
Test in all cases: Antibacterial activity in vitro (MIC, standard agar method)
Assay type in all cases: cell-based
[1] = system: Staph. aureus 887; details: Staphylococcus aureus, DST agar, 35° C., 20 hours, read-out: Minimum inhibitory concentration (MIC)
Description: (§1) The minimum inhibitory concentration (MIC) of the substances investigated against gram-positive and gram-negative strains was determined using standard agar methods. The compounds were dissolved in a small amount of dimethyl sulphoxide, diluted with water and incorporated into liquified DST agar at 50° C. The thus-produced agar plates were used immediately thereafter in the test. The test concentrations lay between 128 and 0.06 μg/ml. The bacterial inoculation solutions were prepared from pre-cultures grown overnight, diluted and applied to the agar surface using an inoculation device (Denley A400). The plates were incubated at 35° C. for 20 hours. The MIC was determined as the lowest concentration of substance which prevented a visible growth. A scarcely visible turbidity and the growth of less than 5 colonies were ignored. The determinations of the antibacterial activities (Tab. 1) were carried out not only for the free bases, but also for the hydrochloride salt of each compound. The same values were obtained within experimental error.

[2] = system: E. coli 1346; details: Escherichia coli, DST agar, 35° C., 20 hours, read-out: Minimum inhibitory concentration (MIC)
Description: as §1

[3] = system: B. subtilis ATCC 585369; details: Bacillus subtilis, ATCC585369, DST agar, 35° C., 20 hours, read-out: Minimum inhibitory concentration (MIC)
Description: as §1

[4] = system: Staph. aureus 25923; details: Staphylococcus aureus, DST agar, 35° C., 20 hours, read-out: Minimum inhibitory concentration (MIC)
Description: as §1

[5] = system: E. coli DC2; details: Escherichia coli, read-out: Minimum inhibitory concentration (MIC)
Description: as §1

[6] = system: E. faecalis 6; details: Enterococcus faecalis; E. faecalis 6; DST agar, 35° C., 20 hours; read-out: Minimum inhibitory concentration (MIC)
Description: as §1

[7] = system: E. coli AS-19; details: Escherichia coli, AS19, DST agar, 35° C., 20 hours, read-out: Minimum inhibitory concentration (MIC)
Description: as §1

[8] = system: S. marcescens; details: Serratia marcescens, 20 h, read-out: Minimum inhibitory concentration (MIC)
Description: as §1

[9] = system: P. aeruginosa 799/61; details: Pseudomonas aeruginosa, 799/61, 20 h, read-out: Minimum inhibitory concentration (MIC)
Description: as §1

[10] = system: P. aeroginosa BA; details: DST agar, 35° C., 20 hours, read-out: Minimum inhibitory concentration (MIC)
Description: as §1

[11] = system: E. cloacae P 99; details: Enterobacter cloacae, P99, 20 h, read-out: Minimum inhibitory concentration (MIC)
Description: as §1

[12] = system: E. coli K12 KEA-12 (GyrA); details: Escherichia coli, 20 h, read-out: Minimum inhibitory concentration (MIC)
Description: as §1

[13] = system: Staph. haemolyticus 75; details: Staphylococcus haemolyticus, DST agar, 35° C., 20 hours, read-out: Minimum inhibitory concentration (MIC)
Description: as §1

[14] = system: E. coli H560; details: Escherichia coli, H560, 20 h, read-out: Minimum inhibitory concentration (MIC)
Description: as §1

[15] = system: P. aeroguinosa 3351; details: 20 h, read-out: Minimum inhibitory concentration (MIC)
Description: as §1

[16] = system: E. coli B; details: Escherichia coli, DST agar, 35° C., 20 hours, read-out: Minimum inhibitory concentration (MIC)
Description: as §1

[17] = system: K. oxytoca 1082E; details: Klebsiella oxytoca, DST agar, 35° C., 20 hours, read-out: Minimum inhibitory concentration (MIC)
Description: as §1

[18] = system: E. coli 1527 E; details: Escherichia coli, 1527E, 20 h, read-out: Minimum inhibitory concentration (MIC)
Description: as §1

[19] = system: E. coli 159 R; details: Escherichia coli, 159R, 20 h, read-out: Minimum inhibitory concentration (MIC)
Description: as §1

[20] = system: E. coli 25922; details: read-out: Minimum inhibitory concentration (MIC)
Description: as §1

[21] = system: S. aureus 101; details: Staphylococcus aureus, DST agar, 35° C., 20 hours, read-out: Minimum inhibitory concentration (MIC)
Description: as §1

[22] = system: S. aureus 853; details: Staphylococcus aureus, DST agar, 35° C., 20 hours, read-out: Minimum inhibitory concentration (MIC)
Description: as §1

[23] = E. coli DC2, DST agar, 35° C., 20 hours
[24] = Escherichia coli, E. coli 25922, DST agar, 35° C., 20 hours

SMILES | MIC [1] [µg/mL] | MIC [2] [µg/mL] | MIC [3] [µg/mL] | MIC [4] [µg/mL] | MIC [6] [µg/mL] | MIC [7] [µg/mL] | MIC [8] [µg/mL] | MIC [9] [µg/mL] | MIC [10] [µg/mL] | MIC [11] [µg/mL] | MIC [12] [µg/mL] | MIC [13] [µg/mL] | MIC [14] [µg/mL] | MIC [15] [µg/mL] | MIC [16] [µg/mL] | MIC [17] [µg/mL] | MIC [18] [µg/mL] | MIC [19] [µg/mL] | MIC [5, 23] [µg/mL] | MIC [21] [µg/mL] | other results
CCOc1ccc(-c2nc3ccc(-c4ccc5nc(-c6ccc(OCC)cc6)[nH]c5c4)cc3[nH]2)cc1 [Example 9, 2,2'-Bis-(4-ethoxy-phenyl)-6,6'-dibenzimidazole] | ≤ 0.5 | 16 (≈ 33.7 µM) | ≤ 0.5 | 2 (≈ 4.21 µM) | 64 (≈ 135 µM) | > 128 | > 128 | > 128 | > 128 | > 128 | > 128 | 1 (≈ 2.11 µM) | > 128 | > 128 | > 128 | > 128 | > 128 | > 128 |  |  | MIC ([5]; DC2, 20 h): > 128 µg/mL; MIC ([20]; Escherichia coli, 25922, 20 h): > 128 µg/mL
Oc1cccc(-c2nc3ccc(-c4ccc5nc(-c6cccc(O)c6)[nH]c5c4)cc3[nH]2)c1 [Example 6, 3-[2'-(3-Hydroxy-phenyl)-6,6'-dibenzimidazol-2-yl]-phenol] | 2 (≈ 4.78 µM) | 2 (≈ 4.78 µM) | 2 (≈ 4.78 µM) | 2 (≈ 4.78 µM) | 2 (≈ 4.78 µM) | 1 (≈ 2.39 µM) | > 128 | > 128 | > 128 | > 128 | > 128 | 1 (≈ 2.39 µM) | > 128 | > 128 | 0.5 (≈ 1.19 µM) | > 128 | > 128 |  | 1 (≈ 2.39 µM) | 0.12 (≈ 0.287 µM) | MIC [20, 24]: > 128 µg/mL
N#Cc1ccc(-c2nc3ccc(-c4ccc5nc(-c6ccc(O)cc6)[nH]c5c4)cc3[nH]2)cc1 [Example 12, 4-[2'-(4-Hydroxy-phenyl)-6,6'-dibenzimidazol-2-yl]-benzonitrile] | 2 (≈ 4.68 µM) | 1 (≈ 2.34 µM) | 2 (≈ 4.68 µM) | 1 (≈ 2.34 µM) | 4 (≈ 9.36 µM) | 32 (≈ 74.9 µM) |  | > 128 | > 128 | > 128 | > 128 | 0.25 (≈ 0.585 µM) | > 128 | > 128 | 2 (≈ 4.68 µM) | > 128 |  | > 128 | 8 (≈ 18.7 µM) | 4 (≈ 9.36 µM) | MIC [22]: 2 µg/mL (≈ 4.68 µM); MIC [20, 24]: > 128 µg/mL
COc1ccc(-c2nc3ccc(-c4ccc5nc(-c6ccc(OC)c(O)c6)[nH]c5c4)cc3[nH]2)cc1O [Example 4, 5-[2'-(3-Hydroxy-4-methoxy-phenyl)-6,6'-dibenzimidazol-2-yl]-2-methoxy-phenol] | 0.5 (≈ 1.04 µM) | ≤ 0.25 | ≤ 0.25 | 0.5 (≈ 1.04 µM) | 32 (≈ 66.9 µM) | 1 (≈ 2.09 µM) | > 128 | > 128 | > 128 | > 128 | > 128 | ≤ 0.25 | > 128 | > 128 | ≤ 0.25 | > 128 | > 128 |  | 2 (≈ 4.18 µM) | ≤ 0.25 | MIC ([20]; Escherichia coli, 25922, 20 h): > 128 µg/mL
